Laboratory results as given in patent US20230340530A1, “Methods of Protecting RNA” (Pfizer Inc., priority 2020, published 2023).

target: RNA samples (Chi18 or HCV IRES); assay: Droplet Digital Polymerase Chain Reaction (ddPCR) assay of RNA protection; type: biochemical; settings: 50 mM Tris buffer pH 11.4, 16 hrs at 30° C. for Chi18 or 42° C. for HCV; table does not say which RNA; 600 µM to 0.018 µM compound, 2% DMSO; read-out: EC50 Values Obtained from the ddPCR Assay
Experimental: The ddPCR assays measured RNA integrity by converting intact RNA to cDNA by reverse transcription, then performing digital PCR in thousands of nanoliter-sized droplets for each sample. PCR was performed within each droplet, which allowed for more sensitive detection of subtle changes in RNA concentration compared to traditional PCR or qPCR. Additionally, primers/probes specific to the 5′ end of the RNA/cDNA transcript(s) were used to assess fragment integrity, i.e. degraded RNA had fewer 5′ positive droplets. The BioRad QX200 Droplet Digital PCR System was used for the ddPCR workflow.
RNA samples (Chi18 or HCV IRES) were diluted to 100 fg/µL in 50 mM Tris buffer pH 11.4. Boron compounds were tested in a dose-response format to determine EC50. A compound dilution plate that contained a 30 mM top concentration of compound in DMSO was serially (half-log) diluted 10 times. A quantity of 0.12 µL of this compound dilution plate was spotted into a 96-well PCR plate (Thermo). Sample RNAs were added (6 µL) and incubated with test compounds as described below. Final compound concentrations ranged from 600 µM to 0.018 µM in 2% DMSO.
For the degradation reaction, treated RNAs were incubated for 16 hrs at 30° C. for Chi18 samples or 42° C. for HCV samples. Upon completion of the degradation reaction, cDNA was made and ddPCR run for each sample (96 well plates). Positive 5′ droplet values were divided by the total accepted droplet values for each sample and a ratio value generated for each sample.
Data was imported into a database where percent (%) protection and compound EC50 were calculated and curated. […] EC50 was determined by using a four parameter logistic equation: Y=A+((B-A)/(1+(C/X)D)); where Y is percent protection, X is compound concentration, A and B are minimum and maximum asymptotes, respectively, C is EC50, and D is Hill slope.

Compound	EC50
CN1CCN(Cc2ccc(B(Oc3cccc4cccnc34)c3ccc(C#N)c(Cl)c3)cc2)CC1 [PF-06956831, quinolin-8-yl (3-chloro-4-cyanophenyl){4-[(4-methylpiperazin-1-yl)methyl]phenyl}borinate]	242 µM
CN1CCN(Cc2ccc([B@@-]3(c4ccc(C#N)cc4)Oc4cccc5ccc[n+]3c45)cc2Cl)CC1 [PF-06956838, {3-chloro-4-[(4-methylpiperazin-1-yl)methyl]phenyl}(4-cyanophenyl)(quinolin-8-olato-kappa-2-N,O)boron]	207 µM
O=C(OCc1cccc(B2OCc3cc(F)ccc32)c1)c1ccc2cccc(O)c2n1 [PF-06957137, [3-(5-fluoro-2,1-benzoxaborol-1 (3H)-yl)phenyl]methyl 8-hydroxyquinoline-2-carboxylate]	429 µM
CN1CCN(Cc2cccc(B(Oc3cccc4cccnc34)c3ccc(C#N)cc3)c2)CC1 [PF-06957315, quinolin-8-yl (4-cyanophenyl){3-[(4-methylpiperazin-1-yl)methyl]phenyl}borinate]	253 µM
O=C(Nc1ccc2c(c1)B(O)OC2)c1ccccc1 [PF-06957640, N-(1-hydroxy-1,3-dihydro-2,1-benzoxaborol-6-yl)benzamide]	266 µM
Cc1cc(Oc2ccnc(NCCN)n2)cc2c1C(CC(=O)O)OB2O (centres unmarked) [PF-06959336, 2-(6-((2-((2-aminoethyl)amino)pyrimidin-4-yl)oxy)-1-hydroxy-4-methyl-1,3-dihydrobenzo[c][1,2]oxabor ol-3-yl)acetic acid]	114 µM
O=C(O)C[C@@H]1OB(O)c2cccc(B(O)O)c21 [PF-06961361, [(3S)-4-borono-1-hydroxy-1,3-dihydro-2,1-benzoxaborol-3-yl]acetic acid]	226 µM
CN(C)c1cc(NC(=O)CCNC(=O)c2ccc3c(c2)COB3O)c(O)c2c1C[C@H]1C[C@H]3[C@H](N(C)C)C(O)=C(C(N)=O)C(=O)[C@@]3(O)C(O)=C1C2=O [PF-06967772, N-(3-{[(5aR,6aS,7S,10aS)-9-carbamoyl-4,7-bis(dimethylamino)-1,8,10a,11-tetrahydroxy-10,12-dioxo-5,5a,6,6a,7,10,10a,12-octahydrotetracen-2-yl]amino}-3-oxopropyl)-1-hydroxy-1,3-dihydro-2,1-benzoxaborole-5-carboxamide]	286 µM
CN(C)c1cc(NC(=O)c2ccc3c(c2)B(O)OC3(C)C)c(O)c2c1C[C@H]1C[C@H]3[C@H](N(C)C)C(O)=C(C(N)=O)C(=O)[C@@]3(O)C(O)=C1C2=O [PF-06967791, N-[(5aR,6aS,7S,1 OaS)-9-carbamoyl-4,7-bis(dimethylamino)-1,8,10a,11-tetrahydroxy-10,12-dioxo-5,5a,6,6a,7,10,10a,12-octahydrotetracen-2-yl]-1-hydroxy-3,3-dimethyl-1,3-dihydro-2,1-benzoxaborole-6-carboxamide]	55.6 µM
C[C@H]1c2ccc(NC(=O)c3ccc4c(c3)B(O)OC4(C)C)c(O)c2C(=O)C2=C(O)[C@]3(O)C(=O)C(C(N)=O)=C(O)[C@@H](N(C)C)[C@@H]3[C@@H](O)[C@@H]21 [PF-06968101, N-[(5R,5aR,6S,6aR,7S,10aS)-9-carbamoyl-7-(dimethylamino)-1,6,8,10a,11-pentahydroxy-5-methyl-10,12-dioxo-5,5a,6,6a,7,10,10a,12-octahydrotetracen-2-yl]-1-hydroxy-3,3-dimethyl-1,3-dihydro-2,1-benzoxaborole-6-carboxamide]	162 µM
C[C@H]1c2ccc(NC(=O)c3ccc4c(c3)B(O)OC4)c(O)c2C(=O)C2=C(O)[C@]3(O)C(=O)C(C(N)=O)=C(O)[C@@H](N(C)C)[C@@H]3[C@@H](O)[C@@H]21 [PF-06968126, N-[(5R,5aR6S,6aR,7S,10aS)-9-carbamoyl-7-(dimethylamino)-1,6,8,10a,11-pentahydroxy-5-methyl-10,12-dioxo-5,5a,6,6a,7,10,10a,12-octahydrotetracen-2-yl]-1-hydroxy-1,3-dihydro-2,1-benzoxaborole-6-carboxamide]	393 µM
C[C@H]1c2ccc(NCCC(=O)Nc3ccc4c(c3)B(O)OCC4)c(O)c2C(=O)C2=C(O)[C@]3(O)C(=O)C(C(N)=O)=C(O)[C@@H](N(C)C)[C@@H]3[C@@H](O)[C@@H]21 [PF-06968237, (4S,4aR,5S,5aR,6R,12aS)-4-(dimethylamino)-3,5,10,12,12a-pentahydroxy-9-({3-[(1-hydroxy-3,4-dihydro-1H-2,1-benzoxaborinin-7-yl)amino]-3-oxopropyl}amino)-6-methyl-1,11-dioxo-1,4,4a,5,5a,6,11,12a-octahyd rotetracene-2-carboxamide]	166 µM
C[C@H]1c2ccc(NC(=O)CCC(=O)Nc3ccc4c(c3)B(O)OC4)c(O)c2C(=O)C2=C(O)[C@]3(O)C(=O)C(C(N)=O)=C(O)[C@@H](N(C)C)[C@@H]3[C@@H](O)[C@@H]21 [PF-06968256, N-1-[(5R,5aR,6S,6aR,7S,10aS)-9-carbamoyl-7-(dimethylamino)-1,6,8,10a,11-pentahydroxy-5-methyl-10,12-dioxo-5,5a,6,6a,7,10,10a,12-octahydrotetracen-2-yl]-N~4~-(1-hydroxy-1,3-dihydro-2,1-benzoxaborol-6-yl)butanediamide]	75.7 µM
C[C@H]1c2ccc(NC(=O)CNc3ccc4c(c3)B(O)OC4(C)C)c(O)c2C(=O)C2=C(O)[C@]3(O)C(=O)C(C(N)=O)=C(O)[C@@H](N(C)C)[C@@H]3[C@@H](O)[C@@H]21 [PF-06968306, (4S,4aR,5S,5aR,6R,12aS)-4-(dimethylamino)-3,5,10,12,12a-pentahydroxy-9-{[N-(1-hydroxy-3,3-dimethyl-1,3-dihydro-2,1-benzoxaborol-6-yl)glycyl]amino}-6-methyl-1,11-dioxo-1,4,4a,5,5a,6,11,12a-octahydrotet racene-2-carboxamide]	234 µM
C[C@H]1c2c(NC(=O)c3ccc4c(c3)B(O)OC4(C)C)ccc(O)c2C(=O)C2=C(O)[C@]3(O)C(=O)C(C(N)=O)=C(O)[C@@H](N(C)C)[C@@H]3[C@@H](O)[C@@H]21 [PF-06968370, N-[(6aS,10S,10aR,11S,11aR, 12R)-8-carbamoyl-10-(dimethylamino)-4,6,6a,9,11-pentahydroxy-12-methyl-5,7-dioxo-5,6a,7,10,10a,11,11a,12-octahydrotetracen-1-yl]-1-hydroxy-3,3-dimethyl-1,3-dihydro-2,1-benzox aborole-6-carboxamide]	258 µM
C[C@H]1c2c(NC(=O)c3ccc4c(c3)B(O)OC4)ccc(O)c2C(=O)C2=C(O)[C@]3(O)C(=O)C(C(N)=O)=C(O)[C@@H](N(C)C)[C@@H]3[C@@H](O)[C@@H]21 [PF-06968384, N-[(6aS,10S,10aR,11S,11aR, 12R)-8-carbamoyl-10-(dimethylamino)-4,6,6a,9,11-pentahydroxy-12-methyl-5,7-dioxo-5,6a,7,10,10a,11,11a,12-octahydrotetracen-1-yl]-1-hydroxy-1,3-dihydro-2,1-benzoxaborole-6-car boxamide]	281 µM
C[C@H]1c2ccc(NCC(=O)Nc3ccc4c(c3)B(O)OC4)c(O)c2C(=O)C2=C(O)[C@]3(O)C(=O)C(C(N)=O)=C(O)[C@@H](N(C)C)[C@@H]3[C@@H](O)[C@@H]21 [PF-06968419, (4S,4aR,5S,5aR,6R,12aS)-4-(dimethylamino)-3,5,10,12,12a-pentahydroxy-9-({2-[(1-hydroxy-1,3-dihydro-2,1-benzoxaborol-6-yl)amino]-2-oxoethyl}amino)-6-methyl-1,11-dioxo-1,4,4a,5,5a,6,11,12a-octahydrotetr acene-2-carboxamide]	75.1 µM
C[C@H]1c2ccc(NCCC(=O)Nc3cc4c5c(c3)OCCOB5OC4)c(O)c2C(=O)C2=C(O)[C@]3(O)C(=O)C(C(N)=O)=C(O)[C@@H](N(C)C)[C@@H]3[C@@H](O)[C@@H]21 [PF-06968542, (4S,4aR,5S,5aR,6R,12aS)-9-({3-[(2,3-dihydro-7H-[1,2]oxaborolo[4,3,2-jk][2,5,1]benzodioxaborepin-9-yl)amino]-3-oxopropyl}amino)-4-(dimethylamino)-3,5,10,12,12a-pentahydroxy-6-methyl-1,11-dioxo-1,4,4a,5,5a,6,11,12a-octahydrotetracene-2-carboxamide]	126 µM
C[C@H]1c2ccc(NCCC(=O)Nc3ccc4c(c3)OCCOB4O)c(O)c2C(=O)C2=C(O)[C@]3(O)C(=O)C(C(N)=O)=C(O)[C@@H](N(C)C)[C@@H]3[C@@H](O)[C@@H]21 [PF-06968559, (4S,4aR,5S,5aR,6R,12aS)-4-(dimethylamino)-3,5,10,12,12a-pentahydroxy-9-({3-[(1-hydroxy-3,4-dihydro-1H-2,5,1-benzodioxaborepin-7-yl)amino]-3-oxopropyl}amino)-8-methyl-1,11-dioxo-1,4,4a,5,5a,6,11,12a-oc tahydrotetracene-2-carboxamide]	99.1 µM
COC(=O)c1cc(B2OC(C)(C)C(C)(C)O2)cc(C(=O)OC)n1 [PHA-00804319, dimethyl 4-(4,4,5,5-tetramethyl-1,3,2-dioxaborolan-2-yl)pyridine-2,6-dicarboxylate]	214 µM
